Results from patent EP0114563A1, “Cytostatically effective combination” (SCHERING AKTIENGESELLSCHAFT, priority 1982, dated 1984).
Read-outs that look alike come from different tables or passages of the source.

Test system: human leukemic cells
Experiment: Inhibition of cell proliferation (growth kinetics by cell counting) in culture
Details: L-Dopa 10 µg/ml, read-out: inhibition in %, based on a control free of active agent
Text: Every second day, the culture medium of each test batch was replaced by fresh medium and active agent.

N[C@@H](Cc1ccc(O)c(O)c1)C(=O)O [L-Dopa, 3-hydroxy-L-tyrosine]
inhibition at 10 µg/mL (72 Hrs.): 18%
inhibition at 10 µg/mL (144 Hrs.): 58%
